Results taken from ChEMBL document CHEMBL3885861, “Open TG-GATES”.

Species: Rattus norvegicus
Assay: Open TG-GATES - Regimen: Single
Assay type: toxicity, organism-based, Sprague-Dawley
Parameters: regimen Single, gender Male, age 6 weeks
Settings: in vivo, po, 150 mg/kg, route gavage, dose level High; for APTT / Bas / Eos / Fbg / Hb / Ht / Lym / MCH / MCHC / MCV / Mono / Neu / PT / Plat / RBC / Ret / WBC: tissue Blood; for KIDNEY_L / KIDNEY_R / KIDNEY_TOTAL: tissue Kidney; for LIVER: tissue Liver; for A/G / ALP / ALT / AST / BUN / CRE / Ca / Cl / DBIL / GLC / IP / K / LDH / Na / PL / RALB / TBIL / TC / TG / TP / gamma-GTP: tissue Plasma

Question: Which results are given for `Nc1nc(N)c2nc(-c3ccccc3)c(N)nc2n1`?
Answer: TERMINAL_BW (3 h): 213.5 g; APTT (3 h): 17.4 s; Bas (3 h): 0.4%; Eos (3 h): 0.8%; Fbg (3 h): 303.6 mg/dL; Hb (3 h): 14.2 g/dL; Ht (3 h): 42.4%; Lym (3 h): 77.2%; MCH (3 h): 21.3 pg; MCHC (3 h): 33.4%; MCV (3 h): 63.7 fL; Mono (3 h): 3.2%; Neu (3 h): 17.6%; PT (3 h): 14 s; Plat (3 h): 128.5 x10_4/uL; RBC (3 h): 666 x10_4/ul; Ret (3 h): 7.5%; WBC (3 h): 118.9 x10_2/uL; KIDNEY_L (3 h): 1 g; KIDNEY_R (3 h): 1 g; KIDNEY_TOTAL (3 h): 2 g; LIVER (3 h): 9.5 g; A/G (3 h): 1; ALP (3 h): 1286.4 IU/L; ALT (3 h): 36.6 IU/L; AST (3 h): 71 IU/L; BUN (3 h): 12.8 mg/dL; CRE (3 h): 0.2 mg/dL; Ca (3 h): 10.8 mg/dL; Cl (3 h): 105.8 meq/L; DBIL (3 h): 0.01 mg/dL; GLC (3 h): 166.4 mg/dL; IP (3 h): 8.6 mg/dL; K (3 h): 5.2 meq/L; LDH (3 h): 56.2 IU/L; Na (3 h): 141 meq/L; PL (3 h): 142.6 mg/dL; RALB (3 h): 2.7 g/dL; TBIL (3 h): 0.06 mg/dL; TC (3 h): 77.6 mg/dL; TG (3 h): 67.2 mg/dL; TP (3 h): 5.5 g/dL; gamma-GTP (3 h): 1 IU/L; TERMINAL_BW (6 h): 206.9 g; APTT (6 h): 17.1 s; Bas (6 h): 0%; Eos (6 h): 1%; Fbg (6 h): 349 mg/dL; Hb (6 h): 14.4 g/dL; Ht (6 h): 43.7%; Lym (6 h): 74.4%; MCH (6 h): 20.9 pg; MCHC (6 h): 33%; MCV (6 h): 63.3 fL; Mono (6 h): 2.8%; Neu (6 h): 20.8%; PT (6 h): 13.9 s; Plat (6 h): 123.5 x10_4/uL; RBC (6 h): 690.6 x10_4/ul; Ret (6 h): 7.5%; WBC (6 h): 94.4 x10_2/uL; KIDNEY_L (6 h): 1 g; KIDNEY_R (6 h): 1 g; KIDNEY_TOTAL (6 h): 1.9 g; LIVER (6 h): 9.1 g; A/G (6 h): 1; ALP (6 h): 1417.8 IU/L; ALT (6 h): 37.8 IU/L; AST (6 h): 76.6 IU/L; BUN (6 h): 11.8 mg/dL; CRE (6 h): 0.2 mg/dL; Ca (6 h): 10.9 mg/dL; Cl (6 h): 105.8 meq/L; DBIL (6 h): 0.01 mg/dL; GLC (6 h): 169.6 mg/dL; IP (6 h): 9.4 mg/dL; K (6 h): 5.3 meq/L; LDH (6 h): 65.2 IU/L; Na (6 h): 140 meq/L; PL (6 h): 150.6 mg/dL; RALB (6 h): 2.8 g/dL; TBIL (6 h): 0.058 mg/dL; TC (6 h): 80.8 mg/dL; TG (6 h): 55.6 mg/dL; TP (6 h): 5.8 g/dL; gamma-GTP (6 h): 1 IU/L; TERMINAL_BW (9 h): 205.8 g; APTT (9 h): 17.3 s; Bas (9 h): 0.2%; Eos (9 h): 1%; Fbg (9 h): 347 mg/dL; Hb (9 h): 14.4 g/dL; Ht (9 h): 43.5%; Lym (9 h): 71.4%; MCH (9 h): 20.9 pg; MCHC (9 h): 33.1%; MCV (9 h): 63.1 fL; Mono (9 h): 2.2%; Neu (9 h): 25%; PT (9 h): 13.9 s; Plat (9 h): 118.6 x10_4/uL; RBC (9 h): 689.4 x10_4/ul; Ret (9 h): 7.6%; WBC (9 h): 77.8 x10_2/uL; KIDNEY_L (9 h): 1 g; KIDNEY_R (9 h): 1 g; KIDNEY_TOTAL (9 h): 2 g; LIVER (9 h): 8.3 g; A/G (9 h): 1; ALP (9 h): 1443.6 IU/L; ALT (9 h): 35.2 IU/L; AST (9 h): 73.4 IU/L; BUN (9 h): 12.6 mg/dL; CRE (9 h): 0.2 mg/dL; Ca (9 h): 11.1 mg/dL; Cl (9 h): 105.4 meq/L; DBIL (9 h): 0.01 mg/dL; GLC (9 h): 165.2 mg/dL; IP (9 h): 10.6 mg/dL; K (9 h): 5 meq/L; LDH (9 h): 57.8 IU/L; Na (9 h): 141.4 meq/L; PL (9 h): 139 mg/dL; RALB (9 h): 2.9 g/dL; TBIL (9 h): 0.066 mg/dL; TC (9 h): 79.4 mg/dL; TG (9 h): 30.2 mg/dL; TP (9 h): 5.9 g/dL; gamma-GTP (9 h): 1.2 IU/L; TERMINAL_BW (24 h): 222.9 g; APTT (24 h): 17.6 s; Bas (24 h): 0.2%; Eos (24 h): 0.8%; Fbg (24 h): 366.6 mg/dL; Hb (24 h): 14.4 g/dL; Ht (24 h): 42.7%; Lym (24 h): 80.8%; MCH (24 h): 21.7 pg; MCHC (24 h): 33.7%; MCV (24 h): 64.4 fL; Mono (24 h): 2.4%; Neu (24 h): 15.4%; PT (24 h): 13.7 s; Plat (24 h): 121.5 x10_4/uL; RBC (24 h): 662.8 x10_4/ul; Ret (24 h): 6.2%; WBC (24 h): 84.4 x10_2/uL; KIDNEY_L (24 h): 1 g; KIDNEY_R (24 h): 1 g; KIDNEY_TOTAL (24 h): 2 g; LIVER (24 h): 10.2 g; A/G (24 h): 0.9; ALP (24 h): 1697.4 IU/L; ALT (24 h): 43 IU/L; AST (24 h): 67.4 IU/L; BUN (24 h): 18 mg/dL; CRE (24 h): 0.2 mg/dL; Ca (24 h): 11.2 mg/dL; Cl (24 h): 106.2 meq/L; DBIL (24 h): 0.01 mg/dL; GLC (24 h): 175.4 mg/dL; IP (24 h): 8.4 mg/dL; K (24 h): 4.4 meq/L; LDH (24 h): 66.6 IU/L; Na (24 h): 143.8 meq/L; PL (24 h): 158 mg/dL; RALB (24 h): 2.7 g/dL; TBIL (24 h): 0.038 mg/dL; TC (24 h): 85.2 mg/dL; TG (24 h): 96.6 mg/dL; TP (24 h): 5.6 g/dL; gamma-GTP (24 h): 1 IU/L
